Reference: patent US9096548B2, “Pyrazine amide compounds” (Boehringer Ingelheim International GmbH, priority 2013, dated 2015)

Target: T1, ENaC (Epithelial Sodium Channel) (Mus musculus, UniProt Q61180+Q9WU38+Q9WU39)
T1 construct: Mouse kidney M−1 cells were cultivated in DMEM; endogenous in cells; host or cells: Mouse kidney M-1 cells, cultivated with dexamethasone on transwell filters
T1 sequence (Q61180 1-699): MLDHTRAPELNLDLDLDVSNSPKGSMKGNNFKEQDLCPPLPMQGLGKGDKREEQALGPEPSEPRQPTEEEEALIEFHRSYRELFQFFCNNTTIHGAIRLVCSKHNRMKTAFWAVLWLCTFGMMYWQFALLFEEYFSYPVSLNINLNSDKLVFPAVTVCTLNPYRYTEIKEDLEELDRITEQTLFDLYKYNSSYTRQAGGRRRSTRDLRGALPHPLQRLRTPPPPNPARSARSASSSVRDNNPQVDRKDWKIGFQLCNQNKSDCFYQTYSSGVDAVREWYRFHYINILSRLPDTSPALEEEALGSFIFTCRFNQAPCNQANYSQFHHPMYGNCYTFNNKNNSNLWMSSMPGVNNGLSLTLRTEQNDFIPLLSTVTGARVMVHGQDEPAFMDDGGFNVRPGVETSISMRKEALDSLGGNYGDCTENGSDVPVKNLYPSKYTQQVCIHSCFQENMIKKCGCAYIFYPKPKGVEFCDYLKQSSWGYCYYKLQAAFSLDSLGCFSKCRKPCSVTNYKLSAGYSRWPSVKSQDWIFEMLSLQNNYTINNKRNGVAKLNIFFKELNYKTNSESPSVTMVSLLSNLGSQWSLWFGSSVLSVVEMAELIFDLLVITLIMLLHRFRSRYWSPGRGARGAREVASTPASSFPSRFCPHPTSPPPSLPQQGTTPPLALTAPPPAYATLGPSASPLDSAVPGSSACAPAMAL
T1 sequence (Q9WU38 1-638): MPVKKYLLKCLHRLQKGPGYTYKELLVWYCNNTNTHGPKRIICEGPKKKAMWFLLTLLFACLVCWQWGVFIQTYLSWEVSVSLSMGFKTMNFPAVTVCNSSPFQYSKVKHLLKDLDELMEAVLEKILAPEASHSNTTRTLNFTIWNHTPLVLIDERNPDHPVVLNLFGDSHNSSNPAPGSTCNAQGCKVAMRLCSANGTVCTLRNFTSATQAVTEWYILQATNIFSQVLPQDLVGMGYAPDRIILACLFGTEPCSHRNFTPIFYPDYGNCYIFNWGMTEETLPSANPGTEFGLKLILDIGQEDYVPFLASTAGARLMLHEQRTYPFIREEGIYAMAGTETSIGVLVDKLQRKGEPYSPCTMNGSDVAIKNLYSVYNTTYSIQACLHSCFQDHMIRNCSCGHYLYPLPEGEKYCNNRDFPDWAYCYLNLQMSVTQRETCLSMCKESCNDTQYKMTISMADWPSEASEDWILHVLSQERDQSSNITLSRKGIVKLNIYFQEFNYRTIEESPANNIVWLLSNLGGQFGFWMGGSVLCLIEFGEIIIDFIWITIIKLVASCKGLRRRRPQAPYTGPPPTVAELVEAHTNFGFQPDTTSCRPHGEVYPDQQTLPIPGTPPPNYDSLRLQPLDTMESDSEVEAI
T1 sequence (Q9WU39 1-655): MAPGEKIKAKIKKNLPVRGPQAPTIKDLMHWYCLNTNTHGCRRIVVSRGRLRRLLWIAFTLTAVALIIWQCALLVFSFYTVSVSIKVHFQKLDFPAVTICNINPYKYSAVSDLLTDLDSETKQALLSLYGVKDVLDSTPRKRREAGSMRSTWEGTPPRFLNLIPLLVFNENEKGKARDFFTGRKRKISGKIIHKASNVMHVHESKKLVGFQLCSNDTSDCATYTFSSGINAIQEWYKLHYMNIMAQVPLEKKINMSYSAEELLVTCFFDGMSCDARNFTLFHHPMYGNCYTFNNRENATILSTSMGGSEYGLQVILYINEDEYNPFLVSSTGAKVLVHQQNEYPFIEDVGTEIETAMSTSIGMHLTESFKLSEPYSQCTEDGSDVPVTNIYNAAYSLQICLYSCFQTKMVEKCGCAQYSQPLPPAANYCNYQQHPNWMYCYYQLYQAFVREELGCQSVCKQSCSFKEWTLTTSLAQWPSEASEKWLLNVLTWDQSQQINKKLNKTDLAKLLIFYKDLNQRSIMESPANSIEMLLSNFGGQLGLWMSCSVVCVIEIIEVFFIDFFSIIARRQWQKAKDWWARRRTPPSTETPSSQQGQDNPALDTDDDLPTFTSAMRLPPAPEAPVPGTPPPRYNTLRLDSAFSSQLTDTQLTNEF
Test: Ussing Chamber assay (short circuit current, amiloride sensitive I_SC)
Type: cell-based
Conditions: Ussing chamber, mouse kidney M-1 cells, short circuit current, compound added to the apical solution; read-out: IC50
Summary of the method: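 Mouse kidney M-1 cells grown 10–12 days on filters with 5 μM dexamethasone, measured in Caco-2 transport buffer at 37° C under voltage clamp. Compound applied apically at 3 μM or 1-3-10 μM; 3 μM amiloride added at end. Short circuit current inhibition given as percent of amiloride effect or IC50.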

| Structure (SMILES) | IC50 [nM] |
| --- | --- |
| CN1CCC(NC(=O)COc2ccc(CCC[N+]3(CCCc4ccc(OCC(=O)NC5CCN(C)C5=O)cc4)CCC[C@H](NC(=O)c4nc(Cl)c(N)nc4N)C3)cc2)C1=O (some centres unmarked) [Example 6.46] | 83 |
| CN1CCOC(CNC(=O)COc2ccc(CCC[N+]3(CCCc4ccc(OCC(=O)NCC5CN(C)CCO5)cc4)CCC[C@H](NC(=O)c4nc(Cl)c(N)nc4N)C3)cc2)C1 (some centres unmarked) [Example 6.47] | 11 |
| CN(CCS(C)(=O)=O)C(=O)COc1ccc(CCC[N+]2(CCCc3ccc(OCC(=O)N(C)CCS(C)(=O)=O)cc3)CCC[C@H](NC(=O)c3nc(Cl)c(N)nc3N)C2)cc1 [Example 6.48] | 85 |
| CO[C@H]1COC[C@@H]1NC(=O)COc1ccc(CCC[N+]2(CCCc3ccc(OCC(=O)N[C@H]4COC[C@@H]4OC)cc3)CCC[C@H](NC(=O)c3nc(Cl)c(N)nc3N)C2)cc1 [Example 6.49] | 27 |
| Nc1nc(N)c(C(=O)N[C@H]2CCC[N+](CCCc3ccc(OCC(=O)NCCc4ccccn4)cc3)(CCCc3ccc(OCC(=O)NCCc4ccccn4)cc3)C2)nc1Cl [Example 6.50] | 6 |
| Nc1nc(N)c(C(=O)N[C@H]2CCC[N+](CCCc3ccc(OCC(=O)NCCc4cccnc4)cc3)(CCCc3ccc(OCC(=O)NCCc4cccnc4)cc3)C2)nc1Cl [Example 6.51] | 5 |
| Nc1nc(N)c(C(=O)N[C@H]2CCC[N+](CCCc3ccc(OCC(=O)NCCc4ccncc4)cc3)(CCCc3ccc(OCC(=O)NCCc4ccncc4)cc3)C2)nc1Cl [Example 6.52] | 4 |
| CN1CCN(C(=O)COc2ccc(CCC[N+]3(CCCc4ccc(OCC(=O)N5CCN(C)CC5)cc4)CCC[C@H](NC(=O)c4nc(Cl)c(N)nc4N)C3)cc2)CC1 [Example 6.53] | 39 |
| Nc1nc(N)c(C(=O)N[C@H]2CCC[N+](CCCc3ccc(OCC(=O)N4CCN(CCO)CC4)cc3)(CCCc3ccc(OCC(=O)N4CCN(CCO)CC4)cc3)C2)nc1Cl [Example 6.54] | 98 |
| Nc1nc(N)c(C(=O)N[C@H]2CCC[N+](CCCc3ccc(OCC(=O)NCCOCCO)cc3)(CCCc3ccc(OCC(=O)NCCOCCO)cc3)C2)nc1Cl [Example 6.55] | 25 |
| Nc1nc(N)c(C(=O)N[C@H]2CCC[N+](CCCc3ccc(OCC(=O)N4CCC(O)CC4)cc3)(CCCc3ccc(OCC(=O)N4CCC(O)CC4)cc3)C2)nc1Cl [Example 6.56] | 92 |
| Nc1nc(N)c(C(=O)N[C@H]2CCC[N+](CCCc3ccc(OCC(=O)NCc4cccnc4)cc3)(CCCc3ccc(OCC(=O)NCc4cccnc4)cc3)C2)nc1Cl [Example 6.57] | 4 |
| Nc1nc(N)c(C(=O)N[C@H]2CCC[N+](CCCc3ccc(OCC(=O)N4CCOCC4)cc3)(CCCc3ccc(OCC(=O)N4CCOCC4)cc3)C2)nc1Cl [Example 6.58] | 72 |
| COCCNC(=O)COc1ccc(CCC[N+]2(CCCc3ccc(OCC(=O)NCCOC)cc3)CCC[C@H](NC(=O)c3nc(Cl)c(N)nc3N)C2)cc1 [Example 6.59] | 12 |
| COCCCNC(=O)COc1ccc(CCC[N+]2(CCCc3ccc(OCC(=O)NCCCOC)cc3)CCC[C@H](NC(=O)c3nc(Cl)c(N)nc3N)C2)cc1 [Example 6.60] | 7 |
| CN(CCO)C(=O)COc1ccc(CCC[N+]2(CCCc3ccc(OCC(=O)N(C)CCO)cc3)CCC[C@H](NC(=O)c3nc(Cl)c(N)nc3N)C2)cc1 [Example 6.61] | 108 |
| Nc1nc(N)c(C(=O)N[C@H]2CCC[N+](CCCc3ccc(OCC(=O)NCc4ccccn4)cc3)(CCCc3ccc(OCC(=O)NCc4ccccn4)cc3)C2)nc1Cl [Example 6.62] | 5 |
| Nc1nc(N)c(C(=O)N[C@H]2CCC[N+](CCCc3ccc(OCC(=O)NCCN4CCOCC4)cc3)(CCCc3ccc(OCC(=O)NCCN4CCOCC4)cc3)C2)nc1Cl [Example 6.63] | 42 |
| Nc1nc(N)c(C(=O)N[C@H]2CCC[N+](CCCc3ccc(OCC(=O)NCc4ccncc4)cc3)(CCCc3ccc(OCC(=O)NCc4ccncc4)cc3)C2)nc1Cl [Example 6.64] | 4 |
| CN(CC#N)C(=O)COc1ccc(CCC[N+]2(CCCc3ccc(OCC(=O)N(C)CC#N)cc3)CCC[C@H](NC(=O)c3nc(Cl)c(N)nc3N)C2)cc1 [Example 6.65] | 94 |
